Experimental data from patent US6753337B2, “Alkynyl containing hydroxamic acid compounds as matrix metalloproteinase/tace inhibitors” (Wyeth Holdings Corporation, priority 1999, dated 2004).
Where a name gives a salt, the structure may show the parent alone.

How the values were obtained:
Assay type in all cases: biochemical
[1] = biological target: TNF-α converting enzyme (TACE) (Homo sapiens, UniProt P78536); assay: Test procedure for measuring TACE inhibition (fluorescent peptidyl substrate)
Outline: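 TACE (1 μg/mL final) preincubated 10 min at room temperature with 1 μM compound in 10 mM Tris pH 7.4, 10% glycerol, DMSO <1%. Treated rates tested against control by Dunnett's test (p<0.05).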

[2] = biological target: MMP-9 (Homo sapiens, UniProt P14780); assay: MMP-9 inhibition (thiopeptide or fluorescent peptide substrate); conditions: for IC50: read-out: MMP9 IC50
Sequence of MMP-9 (P14780 94-707): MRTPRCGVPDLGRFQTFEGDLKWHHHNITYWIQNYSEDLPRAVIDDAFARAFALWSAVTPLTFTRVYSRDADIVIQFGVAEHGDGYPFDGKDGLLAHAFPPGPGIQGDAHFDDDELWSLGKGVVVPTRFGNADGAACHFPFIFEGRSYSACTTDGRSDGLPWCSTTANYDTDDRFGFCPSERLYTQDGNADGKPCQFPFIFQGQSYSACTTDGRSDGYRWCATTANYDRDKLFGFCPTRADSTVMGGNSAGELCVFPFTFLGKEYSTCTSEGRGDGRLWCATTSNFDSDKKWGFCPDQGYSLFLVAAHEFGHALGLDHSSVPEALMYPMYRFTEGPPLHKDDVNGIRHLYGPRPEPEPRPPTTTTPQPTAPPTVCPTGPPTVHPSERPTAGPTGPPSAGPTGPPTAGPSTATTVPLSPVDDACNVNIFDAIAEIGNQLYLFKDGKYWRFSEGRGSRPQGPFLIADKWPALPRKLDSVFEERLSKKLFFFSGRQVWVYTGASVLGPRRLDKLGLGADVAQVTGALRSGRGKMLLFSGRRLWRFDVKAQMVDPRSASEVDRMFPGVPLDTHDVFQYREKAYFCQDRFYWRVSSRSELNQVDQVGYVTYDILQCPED

[3] = biological target: T1, MMP-1 (Homo sapiens, UniProt P03956); assay: MMP-1 inhibition (thiopeptide or fluorescent peptide substrate); conditions: for IC50: read-out: MMP1 IC50
T1 sequence (P03956 100-469): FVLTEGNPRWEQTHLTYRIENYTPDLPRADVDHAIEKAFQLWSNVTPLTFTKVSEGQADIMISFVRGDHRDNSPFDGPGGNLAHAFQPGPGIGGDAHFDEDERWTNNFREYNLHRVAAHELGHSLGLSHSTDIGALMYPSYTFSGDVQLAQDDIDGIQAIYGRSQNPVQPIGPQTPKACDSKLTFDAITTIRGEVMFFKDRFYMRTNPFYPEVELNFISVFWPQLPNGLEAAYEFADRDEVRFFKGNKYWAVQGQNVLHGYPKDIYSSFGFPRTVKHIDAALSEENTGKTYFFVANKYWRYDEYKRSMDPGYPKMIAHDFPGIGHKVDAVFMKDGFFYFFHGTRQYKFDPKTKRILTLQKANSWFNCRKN

Sequence of TNF-α converting enzyme (TACE) (P78536 215-824): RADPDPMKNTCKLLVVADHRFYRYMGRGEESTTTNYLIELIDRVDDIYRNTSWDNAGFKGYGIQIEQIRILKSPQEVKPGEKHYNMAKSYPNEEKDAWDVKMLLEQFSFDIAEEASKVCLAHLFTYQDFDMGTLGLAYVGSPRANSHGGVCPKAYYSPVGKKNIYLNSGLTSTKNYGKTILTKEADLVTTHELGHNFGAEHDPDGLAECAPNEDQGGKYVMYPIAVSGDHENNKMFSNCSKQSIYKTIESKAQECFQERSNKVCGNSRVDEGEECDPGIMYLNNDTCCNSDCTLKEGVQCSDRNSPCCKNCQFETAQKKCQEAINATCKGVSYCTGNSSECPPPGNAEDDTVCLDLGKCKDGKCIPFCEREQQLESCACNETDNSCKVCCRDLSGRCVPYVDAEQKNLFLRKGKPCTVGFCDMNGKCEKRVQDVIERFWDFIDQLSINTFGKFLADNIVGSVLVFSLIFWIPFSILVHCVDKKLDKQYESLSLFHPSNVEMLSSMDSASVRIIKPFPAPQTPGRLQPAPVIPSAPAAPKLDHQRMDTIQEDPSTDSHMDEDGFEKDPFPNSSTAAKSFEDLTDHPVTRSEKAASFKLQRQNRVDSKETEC

Structure (SMILES) | IC50 [1] [nM] | IC50 [2] [nM] | IC50 [3] [nM] | MMP9 % inhibition ([2]; printed in the MMP9 IC50 column, concentration not given) [%] | MMP1 % inhibition ([3]; printed in the MMP1 IC50 column, concentration not given) [%]
CC#CCOc1ccc([S+]([O-])CC2(C(=O)NO)CCN(C(=O)OC(C)(C)C)CC2)cc1 (stereo not drawn) [Example 32, tert-Butyl-4-({[4-(2-butynyloxy)phenyl]sulfinyl}methyl)-4-[(hydroxyamino)-carbonyl]-1-piperidinecarboxylate] | 100 | > 10000 | > 10000 | – | –
CC#CCOc1ccc([S+]([O-])CC2(C(=O)NO)CCNCC2)cc1 (stereo not drawn) [Example 33, 4-[[[4-(2-Butynyloxy)phenyl]sulfinyl]methyl]-N-hydroxy-4-piperidinecarboxamide] | 327 | > 5000 | > 10000 | – | –
CC#CCOc1ccc(S(=O)(=O)C2(C(=O)NO)CCN(C(=O)c3ccccc3)CC2)cc1 [Example 65, 1-Benzoyl-4-(4-but-2-ynyloxybenzenesulfonyl)piperidine-4-carboxylic acid hydroxamide] | 73 | 448 | 3530 | – | –
CC#CCOc1ccc(S(=O)(=O)C2(C(=O)NO)CCN(C(=O)c3ccc(OC)cc3)CC2)cc1 [Example 66, 1-(4-Methoxybenzoyl)-4-(4-but-2-ynyloxybenzenesulfonyl)piperidine-4-carboxylic acid hydroxamide] | 106 | 430 | 2770 | – | –
CC#CCOc1ccc(S(=O)(=O)C2(C(=O)NO)CCN(C(=O)N3CCCC3)CC2)cc1 [Example 67, 4-(4-But-2-ynyloxybenzenesulfonyl)-N-hydroxy-1-(pyrrolidine-1-carbonyl)-4-piperidinecarboxamide] | 72 | 853 | 2030 | – | –
CC#CCOc1ccc(S(=O)(=O)C2(C(=O)NO)CCN(C(=O)OCC)CC2)cc1 [Example 68, Ethyl 4-(4-but-2-ynyloxybenzenesulfonyl)-4-[(hydroxyamino)-carbonyl]-1-piperidinecarboxylate] | 77 | 1330 | 2250 | – | –
CC#CCOc1ccc(S(=O)(=O)C2(C(=O)NO)CCN(S(=O)(=O)C(F)(F)F)CC2)cc1 [Example 69, 4-(4-But-2-ynyloxybenzenesulfonyl)-N-hydroxy-1-[(trifluoromethyl)-sulfonyl]-4-piperidinecarboxamide] | 115 | 1250 | 4000 | – | –
CC#CCOc1ccc(S(=O)(=O)C2(C(=O)NO)CCN(C(=O)c3cccnc3)CC2)cc1 [Example 70, 4-(4-But-2-ynyloxybenzenesulfonyl)-N-hydroxy-1-(3-pyridinylcarbonyl)-4-piperidinecarboxamide] | 87 | 639 | 2960 | – | –
CC#CCOc1ccc(S(=O)(=O)C2(C(=O)NO)CCN(C(=O)c3cccs3)CC2)cc1 [Example 71, 4-(4-but-2-ynyloxybenzenesulfonyl)-N-hydroxy-1-(2-thienylcarbonyl)-4-piperidinecarboxamide] | 113 | 811 | 3120 | – | –
CC#CCOc1ccc(S(=O)(=O)C2(C(=O)NO)CCN(S(=O)(=O)c3ccc(OC)cc3)CC2)cc1 [Example 72, 4-(4-but-2-ynyloxybenzenesulfonyl)-N-hydroxy-1-[(4-methoxyphenyl)-sulfonyl]-4-piperidinecarboxamide] | 221 | 1210 | 4160 | – | –
CC#CCOc1ccc(S(=O)(=O)C2(C(=O)NO)CCN(C(=O)C(C)(CO)CO)CC2)cc1 [Example 74, 4-(4-But-2-ynyloxybenzenesulfonyl)-N-hydroxy-1-[3-hydroxy-2-(hydroxymethyl)-2-methylpropanoyl]-4-piperidinecarboxamide] | 132 | 963 | 4340 | – | –
CC#CCOc1ccc(S(=O)(=O)C2(C(=O)NO)CCN(C(=O)OC(C)(C)C)CC2)cc1 [Example 75, Tert-butyl 4-{[4-(2-butynyloxy)phenyl]sulfonyl}-4-[(hydroxyamino)carbonyl-]-1-piperidinecarboxalate] | 134 | 1950 | 2590 | – | –
CC#CCOc1ccc(S(=O)(=O)C2(C(=O)NO)CCNCC2)cc1 [Example 76, 4-{[4-(2-butynyloxy)phenyl]sulfonyl}-N-hydroxy-4-piperidinecarboxamide hydrochloride] | 201 | 7890 | 4500 | – | –
CC#CCOc1ccc(S(=O)(=O)C2(C(=O)NO)CCN(Cc3ccc(C(=O)OC)cc3)CC2)cc1 [Example 77, hydrochloride] | 114 | 149 | 2190 | – | –
CC#CCOc1ccc([S+]([O-])C2(C(=O)NO)CCN(C(=O)OC(C)(C)C)CC2)cc1 (stereo not drawn) [Example 80, tert-butyl 4-{[4-(but-2-ynyloxy)phenyl]sulfinyl}-4-[(hydroxyamino)carbonyl]piperidine-1-carboxalate] | 90 | 122 | 186000 | – | –
CC#CCOc1ccc([S+]([O-])C2(C(=O)NO)CCNCC2)cc1 (stereo not drawn) [Example 81, 4-(4-(But-2-ynyloxy-benzenesulfinyl)-piperidine-4-carboxylic acid hydroxamide hydrochloride] | 277 | 1040 | 1880 | – | –
CC#CCOc1ccc([S+]([O-])C2(C(=O)NO)CCN(Cc3ccc(Br)cc3)CC2)cc1 (stereo not drawn) [Example 82, 1-(4-Bromo-benzyl)-4-(4-But-2-ynyloxy-benzenesulfinyl)-piperidine-4-carboxylic acid hydroxamide hydrochloride] | 135 | 125 | 257000 | – | –

Results, then the molecule that gave them:

IC50 [1] [nM] | IC50 [2] [nM] | IC50 [3] [nM] | MMP9 % inhibition ([2]; printed in the MMP9 IC50 column, concentration not given) [%] | MMP1 % inhibition ([3]; printed in the MMP1 IC50 column, concentration not given) [%] | Structure (SMILES)
33 | 1390 | ~10000 | – | – | CC#CCOc1ccc(S(=O)(=O)CC2(C(=O)NO)CCN(C(=O)OC(C)(C)C)CC2)cc1 [Example 34, tert-Butyl-4-({[4-(but-2-ynyloxy)phenyl]sulfonyl}methyl)-4-[(hydroxyamino)-carbonyl]piperidine-1-carboxylate]
4.8 | 2830 | 3900 | – | – | CC#CCOc1ccc(S(=O)(=O)CC2(C(=O)NO)CCN(C(C)=O)CC2)cc1 [Example 36, 1-Acetyl-4-[[[4-(2-butynyloxy)phenyl]sulfonyl]methyl]-N-hydroxy-4-piperidinecarboxamide]
19 | 1440 | ~10000 | – | – | CC#CCOc1ccc(S(=O)(=O)CC2(C(=O)NO)CCN(C(=O)NC(C)(C)C)CC2)cc1 [Example 38]
63 | 425 | 707 | – | – | CC#CCOc1ccc(S(=O)(=O)CC2(C(=O)NO)CCN(C(=O)OCc3ccccc3)CC2)cc1 [Example 40, Benzyl 4-({[4-(2-butynyloxy)phenyl]sulfonyl}methyl)-4-[(hydroxyamino)-carbonyl]-1-piperidinecarboxylate]
37 | 1120 | 2680 | – | – | CC#CCOc1ccc(S(=O)(=O)CC2(C(=O)NO)CCN(Cc3ccccc3)CC2)cc1 [Example 41]
12 | > 10000 | ~10000 | – | – | CC#CCOc1ccc(S(=O)(=O)CC2(C(=O)NO)CCN(C(=O)C3(C)COC(C)(C)OC3)CC2)cc1 [Example 42, 4-({[4-(2-Butynyloxy)phenyl]sulfonyl}methyl)-N-hydroxy-1-[(2,2,5-trimethyl-1,3-dioxan-5-yl)carbonyl]-4-piperidinecarboxamide]
13 | > 10000 | ~10000 | – | – | CC#CCOc1ccc(S(=O)(=O)CC2(C(=O)NO)CCN(C(=O)C(C)(CO)CO)CC2)cc1 [Example 43, 4-({[4-(2-Butynyloxy)phenyl]sulfonyl}methyl)-N-hydroxy-1-[3-hydroxy-2-(hydroxymethyl)-2-methylpropanoyl]-4-piperidinecarboxamide]
56 | – | – | 50.6 | 35 | CC#CCOc1ccc(S(=O)(=O)CC2(C(=O)NO)CCN(C(=N)N)CC2)cc1 [Example 44]
25 | 3580 | 3800 | – | – | CC#CCOc1ccc(S(=O)(=O)CC2(C(=O)NO)CCN(CC#CCO)CC2)cc1 [Example 45]
47 | 560 | 4080 | – | – | CC#CCOc1ccc(S(=O)(=O)C2(C(=O)NO)CCN(C(C)=O)CC2)cc1 [Example 64, 1-Acetyl-4-(4-but-2-ynyloxybenzenesulfonyl)piperidine-4-carboxylic acid hydroxamide]
64.5 | 364 | 1050 | – | – | CC#CCOc1ccc(S(=O)(=O)C2(C(=O)NO)CCN(Cc3ccc(C(=O)O)cc3)CC2)cc1 [Example 78, 4-({4-{[4-(2-butynyloxy)phenyl]sulfonyl}-4-[(hydroxyamino)-carbonyl]-1-piperidinyl}methyl)benzoic acid hydrochloride]
70 | 129 | 2420 | – | – | CC#CCOc1ccc(S(=O)(=O)C2(C(=O)NO)CCN(Cc3ccc(C(N)=O)cc3)CC2)cc1 [Example 79, 1-[4-(Aminocarbonyl)benzyl]-4-{[4-(2-butynyloxy)phenyl]sulfonyl}-N-hydroxy-4-piperidinecarboxamide hydrochloride]
